Data as given in patent US20070179060A1, “6-(Poly-substituted aryl)-4-aminopicolinates and their use as herbicides” (priority 2006, published 2007).

Key:
[1] = tested on: lambsquarter (Chenopodium album); assay: Postemergence herbicidal activity; format: in vivo; conditions: post-emergent, after 14 days; for % Control CHEAL / pest or weed control at 140 g/ha: 140 g ai/ha
Experimental: (§1) Seeds or nutlets of the desired test plant species were planted in Sun Gro MetroMix® 306 planting mixture, which typically has a pH of 6.0 to 6.8 and an organic matter content of about 30 percent, in plastic pots with a surface area of 64 square centimeters. When required to ensure good germination and healthy plants, a fungicide treatment and/or other chemical or physical treatment was applied. The plants were grown for 7-21 days in a greenhouse with an approximate 15 hour photoperiod which was maintained at about 23-29° C. during the day and 22-28° C. during the night. Nutrients and water were added on a regular basis and supplemental lighting was provided with overhead metal halide 1000-Watt lamps as necessary. The plants were employed for testing when they reached the first or second true leaf stage. […] The concentrated stock solutions obtained were diluted with 20 mL of an aqueous mixture containing acetone, water, isopropyl alcohol, DMSO, Atplus 411F crop oil concentrate, and Triton® X-155 surfactant in a 48.5:39:10:1.5:1.0:0.02 v/v ratio to obtain spray solutions containing the highest application rates. […] Compound requirements are based upon a 12 mL application volume at a rate of 187 L/ha. Formulated compounds were applied to the plant material with an overhead Mandel track sprayer equipped with a […] nozzles calibrated to deliver 187 L/ha over an application area of 0.503 square meters at a spray height of 18 inches (43 cm) above the average plant canopy height. Control plants were sprayed in the same manner with the solvent blank. The treated plants and control plants were placed in a greenhouse as described above and watered by sub-irrigation to prevent wash-off of the test compounds. […] By applying the well-accepted probit analysis as described by J. Berkson in Journal of the American Statistical […], 48, 565 (1953) and by D.

[2] = tested on: redroot pigweed (Amaranthus retroflexus); assay: Postemergence herbicidal activity; format: in vivo; conditions: post-emergent, after 14 days; for % Control AMARE / pest or weed control at 140 g/ha: 140 g ai/ha
Experimental: as §1

[3] = tested on: velvetleaf (Abutilon theophrasti); assay: Postemergence herbicidal activity; format: in vivo; conditions: post-emergent, after 14 days; for % Control ABUTH / pest or weed control at 140 g/ha: 140 g ai/ha
Experimental: as §1

[4] = Chenopodium album, post-emergence, 336 h, read-out: % Control CHEAL
[5] = Amaranthus retroflexus, post-emergence, 336 h, read-out: % Control AMARE
[6] = Abutilon theophrasti, post-emergence, 336 h, read-out: % Control ABUTH

Compound | % Control CHEAL [1] [%] | % Control AMARE [2] [%] | % Control ABUTH [3] [%] | pest or weed control at 140 g/ha [1, 4] [%] | pest or weed control at 140 g/ha [2, 5] [%] | pest or weed control at 140 g/ha [3, 6] [%] | other results
4-Amino-3-chloro-(2-chloro-4-difluoromethyl-6-fluoro-3-methoxy-phenyl)pyridine-2-carboxylic acid, methyl ester [Compound 53] | 95 | 80 | 70 |  |  |  | 
COC(=O)c1nc(-c2ccc(C#N)c(OC)c2F)cc(N)c1Cl [Compound 6, 4-Amino-3-chloro-6-(4-cyano-2-fluoro-3-methoxyphenyl)pyridine-2-carboxylic acid methyl ester] |  |  |  | 95 | 100 | 90 | 
COC(=O)c1nc(-c2cc(OC)c(Cl)cc2F)cc(NC(C)=O)c1Cl [Compound 18, 4-acetylamino-3-chloro-6-(4-chloro-2-fluoro-5-methoxy-phenyl)pyridine-2-carboxylic acid methyl ester] |  |  |  |  |  |  | melting point: 180 to 182 °C
COC(=O)c1nc(-c2ccc(Cl)c(C)c2F)cc(NC(C)=O)c1Cl [Compound 19, 4-Acetylamino-3-chloro-6-(4-chloro-2-fluoro-3-methylphenyl)pyridine-2-carboxylic acid methyl ester] |  |  |  |  |  |  | melting point: 151 to 152 °C
COC(=O)c1nc(-c2ccc(Cl)c(C(C)(C)F)c2F)cc(N)c1Cl [Compound 25, 4-Amino-3-chloro-6-[4-chloro-2-fluoro-3-(1-fluoro-1-methylethyl)phenyl]-pyridine-2-carboxlic acid, methyl ester] | 100 | 100 | 100 |  |  |  | 
COC(=O)c1nc(-c2ccc(F)c(OC)c2F)cc(NC(C)=O)c1Cl [Compound 28, 4-Acetylamino-3-chloro-(2,4-difluoro-3-methoxyphenyl)pyridine-2-carboxylic acid, methyl ester] | 95 | 100 | 100 |  |  |  | 
COC(=O)c1nc(-c2ccc(F)c(OC)c2Cl)cc(NC(C)=O)c1Cl [Compound 29, 4-Acetylamino-3-chloro-(2-chloro-4-fluoro-3-methoxyphenyl)pyridine-2-carboxylic acid, methyl ester] | 98 | 40 | 95 |  |  |  | 
CCC(F)c1c(Cl)ccc(-c2cc(NC(C)=O)c(Cl)c(C(=O)OC)n2)c1F (centres unmarked) [Compound 32, 4-Acetylamino-3-chloro-6-[4-chloro-2-fluoro-3-(1-fluoropropyl)-phenyl]pyridine-2-carboxylic acid, methyl ester] |  |  |  | 50 | 80 | 60 | 
COC(=O)c1nc(-c2ccc(Cl)c(N(C)C)c2Cl)cc(N)c1Cl [Compound 37, 4-Amino-3-chloro-6-[2,4-dichloro-3-(dimethylamino)phenyl]pyridine-2-carboxylic acid, methyl ester] |  |  |  | 100 | 100 | 100 | 
COC(=O)c1nc(-c2ccc(Cl)c(C(=O)OC)c2F)cc(N)c1Cl [Compound 39, 4-Amino-3-chloro-6-[4-chloro-2-fluoro-3-(methoxycarbonyl)phenyl]pyridine-2-carboxyic acid, methyl ester] | 95 | 75 | 90 |  |  |  | 
COC(=O)c1nc(-c2ccc(Cl)c(C)c2Cl)cc(N)c1Cl [Compound 48, 4-Amino-3-chloro-6-(2,4-dichloro-3-methylphenyl)pyridine-2-carboxylic acid methyl ester] |  |  |  |  |  |  | pest or weed control at 101 g/ha ([1]; Chenopodium album, post-emergence, 336 h, 101 g ai/ha, read-out: % Control CHEAL): 85%; pest or weed control at 101 g/ha ([2]; Amaranthus retroflexus, post-emergence, 336 h, 101 g ai/ha, read-out: % Control AMARE): 80%; pest or weed control at 101 g/ha ([3]; Abutilon theophrasti, post-emergence, 336 h, 101 g ai/ha, read-out: % Control ABUTH): 98%
COC(=O)c1nc(-c2c(F)cc(Cl)c(C(F)F)c2F)cc(N)c1Cl [Compound 54, 4-Amino-3-chloro-6-(4-chloro-3-difluoromethyl-2,6-difluorophenyl)pyridine-2-carboxylic acid, methyl ester] |  |  |  | 100 | 100 | 100 | 
COC(=O)c1nc(-c2c(F)cc(F)c(OC)c2Cl)cc(N)c1Cl [Compound 55, 4-Amino-3-chloro-(2-chloro-4,6-difluoro-3-methoxyphenyl)pyridine-2-carboxylic acid, methyl ester] | 90 | 100 | 100 |  |  |  | 
COC(=O)c1nc(-c2c(F)cc(Cl)c(OC)c2Cl)cc(N)c1Cl [Compound 57, 4-Amino-3-chloro-6-(2,4-dichloro-6-fluoro-3-methoxyphenyl)pyridine-2-carboxylic acid, methyl ester] |  |  |  | 100 | 100 | 100 | 
CCCCOc1c(Cl)ccc(-c2cc(N)c(Cl)c(C(=O)OC)n2)c1F [Compound 60, 4-Amino-3-chloro-6-(4-chloro-3-butoxy-2-fluorophenyl)pyridine-2-carboxylic acid, methyl ester] |  |  |  | 90 | 90 | 55 | 
CCC(F)c1c(Cl)ccc(-c2cc(N)c(Cl)c(C(=O)OC)n2)c1F (centres unmarked) [Compound 66, 4-Amino-3-chloro-6-[4-chloro-2-fluoro-3-(1-fluoropropyl)phenyl]pyridine-2-carboxylic acid, methyl ester] | 95 | 100 | 90 |  |  |  | 
COC(=O)c1nc(-c2ccc(CF)c(OC)c2F)cc(N)c1Cl [Compound 72, 4-Amino-3-chloro-6-(2-fluoro-4-fluoromethyl-3-methoxyphenyl)pyridine-2-carboxylic acid, methyl ester] |  |  |  | 80 | 20 | 100 | 
COC(=O)c1nc(-c2c(F)cc(Cl)c(C)c2F)cc(N)c1Cl [Compound 75, 4-Amino-3-chloro-6-(4-chloro-2,6-difluoro-3-methylphenyl)pyridine-2-carboxylic acid, methyl ester] |  |  |  | 95 | 95 | 100 | 
COC(=O)c1nc(-c2ccc(Cl)c(OC)c2Br)cc(N)c1Cl [Compound 76, 4-Amino-6-(2-bromo-4-chloro-3-methoxyphenyl)-3-chloropyridine-2-carboxylic acid, methyl ester] |  |  |  | 100 | 100 | 100 | 
COC(=O)c1nc(-c2c(F)cc(F)c(C(F)F)c2F)cc(N)c1Cl [Compound 78, 4-Amino-3-chloro-6-(3-difluoromethyl-2,4,6-trifluorophenyl)pyridine-2-carboxylic acid, methyl ester] |  |  |  | 100 | 100 | 90 | 
COC(=O)c1nc(-c2ccc(Cl)c([S+](C)[O-])c2F)cc(N)c1Cl (centres unmarked) [Compound 83, 4-amino-3-chloro-6-(4-chloro-2-fluoro-3-methanesulfinyl-phenyl)pyridine-2-carboxylic acid methyl ester] |  |  |  | 85 | 85 | 90 | 
COC(=O)c1nc(-c2ccc(Cl)c(S(C)(=O)=O)c2F)cc(N)c1Cl [Compound 84, 4-amino-3-chloro-6-(4-chloro-2-fluoro-3-methanesulfonylphenyl)pyridine-2-carboxylic acid methyl ester] |  |  |  | 70 | 75 | 80 | 
Cc1c(F)ccc(-c2cc(N)c(Cl)c(C(=O)O)n2)c1F [Compound 97, 4-Amino-3-chloro-(2,4-difluoro-3-methylphenyl)pyridine-2-carboxylic acid] | 80 | 85 | 65 |  |  |  | 
Nc1cc(-c2ccc(Cl)c(CF)c2F)nc(C(=O)O)c1Cl [Compound 114, 4-Amino-3-chloro-6-(4-chloro-2-fluoro-3-fluoromethylphenyl)pyridine-2-carboxylic acid] |  |  |  | 95 | 85 | 95 | 
CC(C)(F)c1c(Cl)ccc(-c2cc(N)c(Cl)c(C(=O)O)n2)c1Cl [Compound 127] | 100 | 100 | 90 |  |  |  | 
